Experimental data published in patent EP0255256A2, “Antibiotics produced by actinomadura parvosata” (SMITHKLINE BECKMAN CORPORATION, priority 1986, dated 1988).
Converted amounts (≈) assume the structure as drawn. Read-outs that look alike come from different tables or passages of the source.

Assays:
Test in all cases: MIC, standard microtiter assay
Type in all cases: cell-based
[1] = tested on: Staph. saprophyticus 2657; details: Staphylococcus saprophyticus, 2657, read-out: MIC in μg/ml, Staph. saprophyticus 2657
Procedure: (§1) The in vitro minimal inhibitory concentration (MIC) of the AAJ-271 complex and its factors, and vancomycin were determined for a number of microorganisms using the standard microtite'r assay procedures. The results are shown in the following tables, each of which represents a different production run of the complex.
(§2) The in vitro minimal inhibitory concentration (MIC) and the in vitro minimal bactericidal concentration (MBC) of the AAJ-271 aglycones, pseudo-aglycone and vancomycin were determined for a number of microorganisms using the standard microtiter assay procedures.

[2] = tested on: Strep. faecalis 657; details: Enterococcus faecalis, 657, read-out: MIC in μg/ml, Strep. faecalis 657
Procedure: as §1, §2

[3] = tested on: Staph. aureus HH127; details: Staphylococcus aureus, HH127, read-out: MIC in μg/ml, Staph. aureus HH127
Procedure: as §1, §2

[4] = tested on: Staph. epidermidis 2588; details: Staphylococcus epidermidis, 2588, read-out: MIC in μg/ml, Staph. epidermidis 2588
Procedure: as §1, §2

[5] = tested on: Staph. aureus 675; details: Staphylococcus aureus, 675, read-out: MIC in μg/ml, Staph. aureus 675
Procedure: as §1, §2

[6] = tested on: Staph. epidermidis 2256; details: Staphylococcus epidermidis, 2256, read-out: MIC in μg/ml, Staph. epidermidis 2256
Procedure: as §1, §2

[7] = tested on: Strep. pyogenes (Group A)
Procedure: as §1, §2

[8] = tested on: Staph. epidermidis 2479; details: Staphylococcus epidermidis, 2479, read-out: MIC in μg/ml, Staph. epidermidis 2479
Procedure: as §1, §2

[9] = tested on: Staph. haemolyticus 651
Procedure: as §1, §2

[10] = tested on: Staph. aureus 910
Procedure: as §1, §2

[11] = tested on: Staph. epidermidis 2265; details: Staphylococcus epidermidis, 2265, read-out: MIC in μg/ml, Staph. epidermidis 2265
Procedure: as §1, §2

[12] = tested on: Staph. aureus 2620; details: Staphylococcus aureus, 2620, read-out: MIC in μg/ml, Staph. aureus 2620
Procedure: as §1, §2

Compound: CN[C@H](CC(C)C)C(=O)N[C@H]1C(=O)N[C@@H](CC(N)=O)C(=O)N[C@H]2C(=O)N[C@H]3C(=O)N[C@H](C(=O)N[C@H](C(=O)O)c4cc(O)cc(O)c4-c4cc3ccc4O)[C@H](O)c3ccc(c(Cl)c3)Oc3cc2cc(c3O[C@@H]2O[C@H](CO)[C@@H](O)[C@H](O)[C@H]2O[C@H]2C[C@](C)(N)[C@H](O)[C@H](C)O2)Oc2ccc(cc2Cl)[C@H]1O [Vancomycin, vancomycin]
- MIC ([1]; Table I): 1.6 µg/mL (≈ 1.1 µM)
- MIC ([1]; Table VIII): 3.1 µg/mL (≈ 2.14 µM)
- MIC ([2]; Table I): 1.6 µg/mL (≈ 1.1 µM)
- MIC ([2]; Table II): 3.1 µg/mL (≈ 2.14 µM)
- MIC ([2]; Table IX): 3.1 µg/mL (≈ 2.14 µM)
- MIC ([2]; Table VIII): 3.1 µg/mL (≈ 2.14 µM)
- MIC ([3]; Table I): 1.6 µg/mL (≈ 1.1 µM)
- MIC ([3]; Table II): 3.1 µg/mL (≈ 2.14 µM)
- MIC ([3]; Table IX): 3.1 µg/mL (≈ 2.14 µM)
- MIC ([3]; Table VIII): 1.6 µg/mL (≈ 1.1 µM)
- MIC ([4]; Table I): 1.6 µg/mL (≈ 1.1 µM)
- MIC ([4]; Table VIII): 6.3 µg/mL (≈ 4.35 µM)
- MIC ([5]; Table I): 1.6 µg/mL (≈ 1.1 µM)
- MIC ([5]; Table II): 3.1 µg/mL (≈ 2.14 µM)
- MIC ([5]; Table IX): 3.1 µg/mL (≈ 2.14 µM)
- MIC ([5]; Table VIII): 3.1 µg/mL (≈ 2.14 µM)
- MIC ([6]; Table I): 1.6 µg/mL (≈ 1.1 µM)
- MIC ([6]; Table VIII): 3.1 µg/mL (≈ 2.14 µM)
- MIC ([7]; Strep. pyogenes (Group A), Table VIII): 0.8 µg/mL (≈ 0.552 µM)
- MIC ([7]; Streptococcus pyogenes, read-out: MIC in μg/ml): 0.8 µg/mL (≈ 0.552 µM)
- MIC ([8]; Table I): 1.6 µg/mL (≈ 1.1 µM)
- MIC ([8]; Table II): 6.3 µg/mL (≈ 4.35 µM)
- MIC ([8]; Table IX): 6.3 µg/mL (≈ 4.35 µM)
- MIC ([8]; Table VIII): 3.1 µg/mL (≈ 2.14 µM)
- MIC ([9]; Staph. haemolyticus 651, Table II): 3.1 µg/mL (≈ 2.14 µM)
- MIC ([9]; Staph. haemolyticus 651, Table IX): 3.1 µg/mL (≈ 2.14 µM)
- MIC ([9]; Staph. haemolyticus 651, Table VIII): 3.1 µg/mL (≈ 2.14 µM)
- MIC ([9]; Staphylococcus haemolyticus, 651, read-out: MIC in μg/ml): 3.1 µg/mL (≈ 2.14 µM)
- MIC ([10]; Staph. aureus 910, Table VIII): 1.6 µg/mL (≈ 1.1 µM)
- MIC ([10]; Staphylococcus aureus, 910, read-out: MIC in μg/ml): 1.6 µg/mL (≈ 1.1 µM)
- MIC ([11]; Table I): 1.6 µg/mL (≈ 1.1 µM)
- MIC ([11]; Table II): 6.3 µg/mL (≈ 4.35 µM)
- MIC ([11]; Table IX): 6.3 µg/mL (≈ 4.35 µM)
- MIC ([11]; Table VIII): 3.1 µg/mL (≈ 2.14 µM)
- MIC ([12]; Table I): 1.6 µg/mL (≈ 1.1 µM)
- MIC ([12]; Table II): 3.1 µg/mL (≈ 2.14 µM)
- MIC ([12]; Table IX): 3.1 µg/mL (≈ 2.14 µM)
- MIC ([12]; Table VIII): 1.6 µg/mL (≈ 1.1 µM)
